Entries after “also recorded” stand apart in the source; their conditions may differ.
How the values were obtained:
B cells = assay: BioMAP proliferation readout, B cells; format: cell-based, human; conditions: 670 μM, 220 μM, 74 μM; concentrations not associated with cytotoxicity
Source text: (§1) The X-axis lists the quantitative protein-based biomarker readouts measured in each system. The Y-axis represents a log-transformed ratio of the biomarker readouts for the drug-treated sample (n=1) over vehicle controls (n≥6). The grey region around the Y-axis represents the 95% significance envelope generated from historical vehicle controls. Biomarker activities are annotated when two or more consecutive concentrations change in the same direction relative to vehicle controls, are outside of the significance envelope, and have at least one concentration with an effect size >20% (|log 10 ratio|>0.1). Biomarker key activities are described as modulated if these activities increase in some systems, but decrease in others. […] As summarized in Table 2 below, the compound was active with 35 annotated readouts. […]
(§2) Human primary cells in BioMAP® systems are used at early passage (passage 4 or earlier) to minimize adaptation to cell culture conditions and preserve physiological signaling responses. […] Test agents prepared in either DMSO (small molecules; final concentration ≤0.1%) or PBS (biologics) are added at the indicated concentrations 1-hr before stimulation, and remain in culture for 24-hrs or as otherwise indicated (48-hrs, MyoF system; 72-hrs, BT system (soluble readouts); 168-hrs, BT system (secreted IgG)). […]

fibroblasts = assay: BioMAP proliferation readout, fibroblasts; format: cell-based, human; conditions: 670 μM; concentrations not associated with cytotoxicity
Source text: as §1, §2

[1] = tested on: human primary endothelial cells; assay: BioMAP proliferation readout, endothelial cells; format: cell-based; conditions: 670 μM, 220 μM, 74 μM; concentrations not associated with cytotoxicity
Source text: as §1, §2

[2] = tested on: 12 human primary cell-based systems; assay: BioMAP Diversity PLUS panel, protein biomarker readouts and cytotoxicity
Source text: This example describes testing the compound prepared in Example 1 in the BioMAP Diversity PLUS (Eurofins Discovery, Burlingame, California) panel of 12 human primary cell-based systems designed to model different aspects of the human body in an in vitro format. The 12 systems in the Diversity PLUS panel allow test agent characterization in an unbiased way across a broad set of systems modeling various human disease states. BioMAP systems are constructed with one or more primary cell types from healthy human donors, with stimuli (such as cytokines or growth factors) added to capture relevant signaling networks that naturally occur in human tissue or pathological conditions. Vascular biology is modeled in both a Th1 (3C system) and a Th2 (4H system) inflammatory environment, as well as in a Th1 inflammatory state specific to arterial smooth muscle cells (CASM3C system). Additional systems recapitulate aspects of the systemic immune response including monocyte-driven Th1 inflammation (LPS system) or T cell stimulation (SAg system), chronic Th1 inflammation driven by macrophage activation (lMphg system) and the T cell-dependent activation of B cells that occurs in germinal centers (BT system). The BE3C system (Th1) and the BF4T system (Th2) represent airway inflammation of the lung, while the MyoF system models myofibroblast-lung tissue remodeling. Lastly, skin biology is addressed in the KF3CT system modeling Th1 cutaneous inflammation and the HDF3CGF system modeling wound healing.
The X-axis lists the quantitative protein-based biomarker readouts measured in each system. The Y-axis represents a log-transformed ratio of the biomarker readouts for the drug-treated sample (n=1) over vehicle controls (n≥6). The grey region around the Y-axis represents the 95% significance envelope generated from historical vehicle controls. Biomarker activities are annotated when two or more consecutive concentrations change in the same direction relative to vehicle controls, are outside of the significance envelope, and have at least one concentration with an effect size >20% (|log 10 ratio|>0.1). Biomarker key activities are described as modulated if these activities increase in some systems, but decrease in others. Cytotoxicity is indicated on the profile plot by a thin black arrow above the X-axis, and antiproliferative effects are indicated by a thick grey arrow. Cytotoxicity and antiproliferative arrows only require one concentration to meet the indicated threshold for profile annotation. As summarized in Table 2 below, the compound was active with 35 annotated readouts. Specifically, the compound impacted inflammation-related activities (decreased Eotaxin 3, VCAM-1, MCP-1, SAA, sTNFα, MIP-1α; increased IL-1α, IL-6; modulated IL-8), immunomodulatory activities (decreased CD40, sIL-1β, sIgG, M-CSF, sIL-17A, sIL-6, sIL-17F, sIL-2), tissue remodeling activities (decreased PAI-1, uPAR, αSMA, Keratin 8/18; increased collagen I, MMP-1), and hemostasis-related activities (increased TF).
BioMAP® panels consist of human primary cell-based systems designed to model different aspects of the human body in an in vitro format. BioMAP® systems are constructed with one or more primary cell types from healthy human donors, with stimuli (such as cytokines or growth factors) added to capture relevant signaling networks that naturally occur in human tissue or pathological conditions. Vascular biology is modeled in both a Th1 (3C system) and a Th2 (4H system) inflammatory environment, as well as in a Th1 inflammatory state specific to arterial smooth muscle cells (CASM3C system). Additional systems recapitulate aspects of the systemic immune response including monocyte-driven Th1 inflammation (LPS system) or T cell stimulation (SAg system), chronic Th1 inflammation driven by macrophage activation (Mphg system) and the T cell-dependent activation of B cells that occurs in germinal centers (BT system). […]

[3] = tested on: coronary artery smooth muscle cells; assay: BioMAP proliferation readout, coronary artery smooth muscle cells; format: cell-based, human; conditions: 670 μM, 220 μM, 74 μM; concentrations not associated with cytotoxicity
Source text: as §1, §2

T cells = assay: BioMAP proliferation readout, T cells; format: cell-based, human; conditions: 670 μM, 220 μM; concentrations not associated with cytotoxicity
Source text: as §1, §2

[4] = Inflammation-related activities
[5] = lower three concentrations tested, immunomodulatory
[6] = lower three concentrations tested, inflammation-related
[7] = lower three concentrations tested, tissue remodeling

c1ncc(C2=NCCC2)cc1C1=NCCC1 [Example 1]
antiproliferative effect on B cells (B cells): antiproliferative
antiproliferative effect on fibroblasts (fibroblasts): antiproliferative
antiproliferative effect on human primary endothelial cells [1]: antiproliferative
annotated readouts ([2]; Diversity PLUS Panel profile): 35
Decreased Activity: M-CSF ([2]; Immunomodulatory activities): decreased; also recorded: M-CSF
Decreased Activity: sIL-6 ([2]; Immunomodulatory activities): decreased; also recorded: inhibited; also recorded: sIL-6
Decreased Activity: sIL-10 (Table 2) / sIL-1β ([2]; Immunomodulatory activities): decreased
Decreased Activity: sIL-17F ([2]; Immunomodulatory activities): decreased; also recorded: SIL-17F
Decreased Activity: sIgG ([2]; Immunomodulatory activities): decreased and sigG
Decreased activity: CD40 ([2]; Immunomodulatory activities): decreased and CD40
Decreased activity: sIL-2 ([2]; Immunomodulatory activities): decreased
Decreased activity: sIL-17A ([2]; Immunomodulatory activities): decreased; also recorded: SIL-17A
Decreased Activity: Eotaxin 3 [2, 4]: decreased and Eot3
Decreased Activity: MIP-1α [2, 4]: decreased
Decreased Activity: SAA [2, 4]: decreased and SAA
Decreased Activity: sTNFα [2, 4]: decreased; also recorded: inhibited; also recorded: sTNFα
Decreased activity: MCP-1 [2, 4]: decreased; also recorded: MCP-1
Decreased activity: VCAM-1 [2, 4]: decreased; also recorded: VCAM-1
Increased Activity: IL-1α [2, 4]: increased and IL1a
Increased Activity: IL-6 [2, 4]: increased and IL6
Modulated Activity: IL-8 [2, 4]: modulated and IL8
Decreased Activity: Keratin 8/18 ([2]; Tissue remodeling activities): decreased; also recorded: Ker8-18
Decreased Activity: PAI-1 ([2]; Tissue remodeling activities): decreased; also recorded: PAI-1
Decreased Activity: uPAR ([2]; Tissue remodeling activities): decreased and uPAR
Decreased Activity: αSMA ([2]; Tissue remodeling activities): decreased and aSMA
Increased Activity: MMP-1 ([2]; Tissue remodeling activities): increased; also recorded: MMP1,
Increased Activity: collagen I ([2]; Tissue remodeling activities): increased; also recorded: Col-1
annotated readouts ([2]; lower three concentrations tested): 23
TF ([2]; lower three concentrations tested, hemostasis-related): increased
sIL-1β [2, 5]: decreased
sIL-2 [2, 5]: decreased
sIL-6 [2, 5]: decreased
sIL-17A [2, 5]: decreased
sIL-17F [2, 5]: decreased
sIgG [2, 5]: decreased
Eotaxin 3 [2, 6]: decreased
IL-1α [2, 6]: increased
IL-6 [2, 6]: increased
IL-8 [2, 6]: increased
MCP-1 [2, 6]: decreased
SAA [2, 6]: decreased
VCAM-1 [2, 6]: decreased
sTNFα [2, 6]: decreased
MMP-1 [2, 7]: increased
PAI-1 [2, 7]: decreased
collagen I [2, 7]: increased
antiproliferative effect on coronary artery smooth muscle cells [3]: antiproliferative
antiproliferative effect on T cells (T cells): antiproliferative

From patent US12358892B2, “Metalloenzyme inhibitors for treating cancers, Alzheimer's disease, hemochromatosis, and other disorders” (Miralogx LLC, priority 2020, dated 2025)
